# Test results from patent US11214803B2, “Modulators of YAP1 expression” (Ionis Pharmaceuticals, Inc., priority 2019, dated 2022).
# Strand notation (5' to 3'): a small letter for the sugar, then the base; units joined by * are phosphorothioate-linked, units joined directly phosphodiester-linked; [ ] holds rarer units or linkages, { } end groups; capitals alone tell only the bases. e = 2'-O-(2-methoxyethyl) (MOE); k = constrained ethyl (cEt); [5mC] = 5-methylcytosine; d = 2'-deoxy (DNA); m = 2'-O-methyl
# System: Yap1 mRNA
# Experiment: Antisense inhibition of human Yap1 in SNU-449 cells by modified oligonucleotides, single dose (Example 5, RTS36584)
# Assay type: cell-based
# Outline: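 SNU-449 cells (10,000/well) took up 2,000 nM oligonucleotide by free uptake for about 48 h. Yap1 mRNA was measured by qRT-PCR with primer probe set RTS36584 and normalised to RIBOGREEN total RNA. Values are % of untreated control; asterisked oligos target the amplicon region.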
# [1] = Table 42 (separate experiment), SNU-449 cells, 10,000 cells per well, free uptake, 2,000 nM modified oligonucleotide, approximately 48 hours, RTS36584, normalized to RIBOGREEN, Yap1 mRNA relative to untreated control cells
# [2] = Table 48, Yap1 mRNA level relative to untreated control, modified oligonucleotides targeting SEQ ID NO.: 1 and 2
# [3] = Table 46, Yap1 mRNA as percent of untreated control, SNU-449 cells, single dose
# [4] = Table 49, Yap1 mRNA level relative to untreated control, modified oligonucleotides targeting SEQ ID NO.: 1 and 2
# [5] = Table 41, SNU-449 cells, 10,000 cells per well, free uptake, 2,000 nM modified oligonucleotide, approximately 48 hours, RTS36584, normalized to RIBOGREEN, Yap1 mRNA relative to untreated control cells
# [6] = Table 45, Yap1 mRNA as percent of untreated control, SNU-449 cells, single dose
# [7] = Table 52, Yap1 mRNA, modified oligonucleotides targeting SEQ ID NO: 1 and 2
# [8] = Table 44 experiment, SNU-449 cells, 10,000 cells per well, free uptake, 2,000 nM, approximately 48 hours, RTS36584, Yap1 mRNA normalized to RIBOGREEN, relative to untreated control cells
# [9] = Table 50, Yap1 mRNA remaining as percent of untreated control (UT), SNU-449 cells, single dose
# [10] = Table 40 (separate experiment), SNU-449 cells, 10,000 cells per well, free uptake, 2,000 nM oligonucleotide, approx. 48 hours, RTS36584, normalized to RIBOGREEN, Yap1 mRNA relative to untreated control
# [11] = Table 51, Yap1 mRNA remaining as percent of untreated control (UT), SNU-449 cells, single dose
substance,measurement,setting,value
1198678 (antisense kA*kT*dA*dT*dG*dG*dT*dT*dT*dT*dG*dT*kG*eT*kG*eT) [Compound 1198678],YAP1 (% UTC),[1],58 % UTC
1198295 (kT*kA*kG*dA*dG*dT*dA*dT*dG*dT*dG*dG*k[5mC]*eA*kA*eT; antisense) [Compound 1198295],YAP1 (% UT),[2],15 % UT
1198888 (kA*kG*dA*d[5mC]*dT*dA*dA*dG*dT*dA*dA*kG*eG*kT*eT*kT; antisense) [Compound 1198888],YAP1 (% UT),[3],51 % UT
1198337 (kT*k[5mC]*kT*dT*dA*dT*dA*dT*dG*dG*dT*dT*kT*eT*kG*eT; antisense) [Compound 1198337],YAP1 (% UT),[4],26 % UT
1198355 (kA*kA*kA*dG*dT*dG*dT*dA*dT*dG*dT*d[5mC]*kA*eG*kA*eA; antisense) [Compound 1198355],YAP1 (% UT),[4],6 % UT
1198674 (antisense kA*kG*dA*dT*dT*dT*dA*dG*dG*dA*dT*dG*k[5mC]*eA*kT*eG) [Compound 1198674],YAP1 (% UTC),[5],21 % UTC
1198216 (kT*kA*dT*dA*dA*d[5mC]*dT*dG*dG*dG*d[5mC]*eA*eA*eA*kT*kT; antisense) [Compound 1198216],YAP1 (% UTC),"Table 43 experiment, SNU-449 cells, 10,000 cells per well, free uptake, 2,000 nM, approximately 48 hours, RTS36584, Yap1 mRNA normalized to RIBOGREEN, relative to untreated control cells",89 % UTC
1198834 (kA*kA*dG*d[5mC]*dA*d[5mC]*dT*dT*dT*dT*dA*k[5mC]*eA*kT*eT*kA; antisense) [Compound 1198834],YAP1 (% UT),[3],54 % UT
1198950 (kA*kT*dA*dT*dT*dG*d[5mC]*dA*dA*dT*d[5mC]*kT*dG*kT*d[5mC]*kT; antisense) [Compound 1198950],YAP1 (% UTC),[6],85 % UTC
1198546 (antisense kG*kA*kA*dA*dT*dT*dG*dT*d[5mC]*dT*d[5mC]*dA*kT*kG*k[5mC]*e[5mC]) [Compound 1198546],YAP1 (% UT),[4],11 % UT
1200866 (kA*kG*kT*dA*dA*mG*dG*dT*dT*dT*d[5mC]*d[5mC]*d[5mC]*kA*kG*kA; antisense) [Compound 1200866],YAP1 (% UT),[7],41 % UT
1198383 (kA*dT*dT*dA*dG*dA*dG*dT*dA*dT*dG*kT*eG*kG*e[5mC]*kA; antisense) [Compound 1198383],YAP1 (% UTC),"Table 39, SNU-449 cells, 10,000 cells per well, free uptake, 2,000 nM oligonucleotide, approx. 48 hours, RTS36584, normalized to RIBOGREEN, Yap1 mRNA relative to untreated control",31 % UTC
1198689 (antisense kA*kA*dT*dA*dT*dT*dG*d[5mC]*dA*dA*dT*d[5mC]*kT*eG*kT*e[5mC]) [Compound 1198689],YAP1 (% UTC),[5],91 % UTC
1198226 (kG*k[5mC]*dA*d[5mC]*dT*dT*dT*dT*dA*d[5mC]*dA*eT*eT*eA*kG*kG) [Compound 1198226],YAP1 (% UTC),[1],23 % UTC
1198324 (kA*kT*kA*dG*dT*dG*d[5mC]*dT*dT*dT*dG*dG*kA*eA*kG*eA; antisense) [Compound 1198324],YAP1 (% UT),[2],53 % UT
1198486 (antisense kA*kA*dG*d[5mC]*dA*d[5mC]*dT*dT*dT*dT*dA*e[5mC]*kA*eT*kT*eA) [Compound 1198486],YAP1 (% UTC),[8],39 % UTC
1198914 (kT*kT*dT*dT*dA*d[5mC]*dA*dT*dT*dA*dG*kG*dA*kA*d[5mC]*kA; antisense) [Compound 1198914],YAP1 (% UTC),[6],68 % UTC
1198612 (antisense kA*kA*kG*dT*dG*dT*dA*dT*dG*dT*d[5mC]*dA*kG*kA*kA*eG) [Compound 1198612],YAP1 (% UT),[9],5 % UT
1198580 (antisense kG*kT*kG*d[5mC]*dT*dT*dT*dG*dG*dA*dA*dG*kA*kT*k[5mC]*eT) [Compound 1198580],YAP1 (% UT),[4],43 % UT
1198714 (kT*eG*kT*d[5mC]*dT*d[5mC]*dA*dT*dG*d[5mC]*d[5mC]*dT*eT*eA*kT*kA; antisense) [Compound 1198714],YAP1 (% UTC),[10],20 % UTC
1198348 (kT*kG*kT*dA*dA*dT*dA*dT*dT*dG*d[5mC]*dA*kA*eT*k[5mC]*eT; antisense) [Compound 1198348],YAP1 (% UT),[2],40 % UT
1198706 (kA*kG*dT*dA*dA*dG*dG*dT*dT*dT*d[5mC]*d[5mC]*k[5mC]*eA*kG*eA; antisense) [Compound 1198706],YAP1 (% UTC),[1],39 % UTC
1198445 (k[5mC]*dT*dT*dT*dA*dA*dA*dG*dT*dG*dT*kA*eT*kG*eT*k[5mC]; antisense) [Compound 1198445],YAP1 (% UTC),[10],61 % UTC
1198590 (antisense kT*k[5mC]*kA*dG*dA*dT*dT*dT*dA*dG*dG*dA*kT*kG*k[5mC]*eA) [Compound 1198590],YAP1 (% UT),[9],46 % UT
1198352 (kT*kG*kT*dA*dT*dG*dT*d[5mC]*dA*dG*dA*dA*kG*eA*kG*eT; antisense) [Compound 1198352],YAP1 (% UT),[4],7 % UT
1198509 (kT*k[5mC]*dT*dT*dA*dT*dA*dT*dG*dG*dT*eT*kT*eT*kG*eT; antisense) [Compound 1198509],YAP1 (% UTC),[8],20 % UTC
1200864 (kA*kA*k[5mC]*dT*dT*mU*dA*dA*dA*dG*dT*dG*dT*kA*kT*kG; antisense) [Compound 1200864],YAP1 (% UT),[7],84 % UT
1197291 (k[5mC]*kT*kT*dT*mU*dA*d[5mC]*dA*dT*dT*dA*dG*dG*kA*kA*k[5mC]; antisense) [Compound 1197291],YAP1 (% UT),[9],83 % UT
1198362 (kA*kG*kT*dA*dA*dG*dG*dT*dT*dT*d[5mC]*d[5mC]*k[5mC]*eA*kG*eA; antisense) [Compound 1198362],YAP1 (% UT),[4],24 % UT
1198493 (antisense kT*kG*d[5mC]*dT*dT*dT*dG*dG*dA*dA*dG*eA*kT*e[5mC]*kT*eG) [Compound 1198493],YAP1 (% UTC),[8],28 % UTC
1009324 (kA*kG*kT*dA*dT*dG*dT*dG*dG*d[5mC]*dA*dA*dT*kA*kA*kT; antisense) [Compound 1009324],YAP1 (% UT),"Yap1 mRNA, percent of untreated control, modified oligonucleotides targeting SEQ ID NO: 1 and 2, Table 47",27 % UT
"1198740 (AACACTGAGGTATAAC; all C 5-methyl, sugars by position and backbone not given here; position 2 notation garbled, mixed cEt/MOE/deoxy gapmer) [Compound 1198740]",YAP1 (% UTC),[5],39 % UTC
1198633 (kG*kG*dA*dA*dA*dT*dT*dG*dT*d[5mC]*dT*d[5mC]*kA*eT*kG*e[5mC]; antisense) [Compound 1198633],YAP1 (% UTC),[5],46 % UTC
1198637 (kA*kG*dT*dA*dT*dG*dT*dG*dG*d[5mC]*dA*dA*kT*eA*kA*eT; antisense) [Compound 1198637],YAP1 (% UTC),[5],64 % UTC
1198756 (kG*eT*kG*d[5mC]*dT*dT*dT*dG*dG*dA*dA*dG*eA*eT*k[5mC]*kT; antisense) [Compound 1198756],YAP1 (% UTC),[10],50 % UTC
1197257 (antisense kT*k[5mC]*kA*dG*mA*dT*dT*dT*dA*dG*dG*dA*dT*kG*k[5mC]*kA) [Compound 1197257],YAP1 (% UT),[11],20 % UT
1197271 (kT*kT*kT*dA*mA*dA*dG*dT*dG*dT*dA*dT*dG*kT*k[5mC]*kA) [Compound 1197271],YAP1 (% UT),[11],12 % UT
1198796 (antisense kA*eG*kT*dA*dA*dG*dG*dT*dT*dT*d[5mC]*d[5mC]*e[5mC]*eA*kG*kA) [Compound 1198796],YAP1 (% UTC),[10],32 % UTC
1198766 (kT*e[5mC]*kA*dG*dA*dT*dT*dT*dA*dG*dG*dA*eT*eG*k[5mC]*kA; antisense) [Compound 1198766],YAP1 (% UTC),[10],19 % UTC
1198538 (kA*k[5mC]*dT*dA*dA*dG*dT*dA*dA*dG*dG*eT*kT*eT*k[5mC]*e[5mC]; antisense) [Compound 1198538],YAP1 (% UTC),[8],29 % UTC
1198869 (kA*kT*dG*dT*dA*dA*dT*dA*dT*dT*dG*k[5mC]*eA*kA*eT*k[5mC]; antisense) [Compound 1198869],YAP1 (% UT),[3],49 % UT
